Data from PubChem BioAssay AID248 (DTP/NCI, 2004).
Several values for one entry are separate records, joined by “and”; a condition that tells them apart may be missing. Equal entries are not always repeated. Toxic doses and inconclusive results are not listed. No stated cut-off is given here; in the data, active means T/C of 150% or more; inactive means T/C below 125%.

System: L1210 leukemia ip in BDF1 mice, survival T/C
Assay: NCI In Vivo Anticancer Drug Screen. Data for tumor model L1210 Leukemia (intraperitoneal) in B6D2F1 (BDF1) mice
Settings: endpoint: mean survival time, higher = longer survival
In short: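 Tumor cells were implanted, animals were treated, and survival was followed. The result divides the treated measurement by the vehicle-control measurement.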

[1] = dose: 100.0 mg/kg/injection, schedule: Q04DX003 (ip), vehicle: saline with Tween-80
[2] = dose: 200.0 mg/kg/injection, schedule: Q04DX003 (ip), vehicle: saline with Tween-80
[3] = dose: 400.0 mg/kg/injection, schedule: Q04DX003 (ip), vehicle: saline with Tween-80
[4] = dose: 100.0 mg/kg/injection, schedule: Q01DX009 (ip), vehicle: saline with Tween-80
[5] = dose: 100.0 mg/kg/injection, schedule: Q01DX009 (ip), vehicle: saline
[6] = dose: 100.0 mg/kg/injection, schedule: Q04DX003 (ip), vehicle: saline
[7] = dose: 200.0 mg/kg/injection, schedule: Q04DX003 (ip), vehicle: saline
[8] = dose: 400.0 mg/kg/injection, schedule: Q04DX003 (ip), vehicle: saline
[9] = dose: 100.0 mg/kg/injection, schedule: Q04DX002 (ip), vehicle: Klucel (hydroxypropylcellulose) (HPC)
[10] = dose: 200.0 mg/kg/injection, schedule: Q04DX002 (ip), vehicle: Klucel (hydroxypropylcellulose) (HPC)
[11] = dose: 400.0 mg/kg/injection, schedule: Q04DX002 (ip), vehicle: Klucel (hydroxypropylcellulose) (HPC)
[12] = dose: 100.0 mg/kg/injection, schedule: Q04DX002 (ip), vehicle: saline with Tween-80
[13] = dose: 100.0 mg/kg/injection, schedule: Q04DX003 (ip), vehicle: water
[14] = dose: 200.0 mg/kg/injection, schedule: Q04DX002 (ip), vehicle: saline with Tween-80
[15] = dose: 200.0 mg/kg/injection, schedule: Q04DX003 (ip), vehicle: water
[16] = dose: 400.0 mg/kg/injection, schedule: Q04DX003 (ip), vehicle: water
[17] = dose: 75.0 mg/kg/injection, schedule: Q04DX003 (ip), vehicle: Klucel (hydroxypropylcellulose) (HPC)
[18] = dose: 150.0 mg/kg/injection, schedule: Q04DX003 (ip), vehicle: Klucel (hydroxypropylcellulose) (HPC)
[19] = dose: 300.0 mg/kg/injection, schedule: Q04DX003 (ip), vehicle: Klucel (hydroxypropylcellulose) (HPC)
[20] = dose: 100.0 mg/kg/injection, schedule: Q01DX001 (ip), vehicle: carboxymethylcellulose (CMC)
[21] = dose: 200.0 mg/kg/injection, schedule: Q01DX001 (ip), vehicle: carboxymethylcellulose (CMC)
[22] = dose: 400.0 mg/kg/injection, schedule: Q01DX001 (ip), vehicle: carboxymethylcellulose (CMC)
[23] = dose: 100.0 mg/kg/injection, schedule: Q01DX001 (ip), vehicle: saline with Tween-80
[24] = dose: 200.0 mg/kg/injection, schedule: Q01DX001 (ip), vehicle: saline with Tween-80
[25] = dose: 400.0 mg/kg/injection, schedule: Q01DX001 (ip), vehicle: saline with Tween-80
[26] = dose: 400.0 mg/kg/injection, schedule: Q04DX002 (ip), vehicle: saline with Tween-80

Measured: T/C

COC(/C=N/O)c1ccccc1 (stereo not drawn)
inactive: dose: 50.0 mg/kg/injection, schedule: Q01DX009 (ip), vehicle: other 88 % of control | dose: 100.0 mg/kg/injection, schedule: Q01DX009 (ip), vehicle: other 88 % of control | dose: 200.0 mg/kg/injection, schedule: Q01DX009 (ip), vehicle: other 101 % of control

C1=CC2CC3(OCCO3)C2C1 (stereo not drawn)
inactive: [1] 95 % of control | [2] 92 % of control | [3] 92 % of control

Nc1ccc(-c2ccccc2)cc1Br
inactive: dose: 15.0 mg/kg/injection, schedule: Q01DX001 (ip), vehicle: carboxymethylcellulose (CMC) 101 % of control | dose: 30.0 mg/kg/injection, schedule: Q01DX001 (ip), vehicle: carboxymethylcellulose (CMC) 96 % of control

O=[N+]([O-])c1cccc(OCCCc2ccccc2)c1
inactive: [4] 98 % of control | dose: 200.0 mg/kg/injection, schedule: Q01DX009 (ip), vehicle: saline with Tween-80 102 % of control | dose: 400.0 mg/kg/injection, schedule: Q01DX009 (ip), vehicle: saline with Tween-80 112 % of control

COc1ccccc1NC(=O)c1cc2ccccc2cc1O
inactive: [5] 109 % of control | [6] 100 % of control | dose: 200.0 mg/kg/injection, schedule: Q01DX009 (ip), vehicle: saline 104 % of control | [7] 100 % of control | dose: 400.0 mg/kg/injection, schedule: Q01DX009 (ip), vehicle: saline 100 % of control | [8] 98 % of control

CCCCCCCCCCCCCCCCCCCCC(C(=O)O)S(=O)(=O)O (stereo not drawn)
inactive: [6] 95 % of control | [8] 96 % of control

S=P(N1CCOCC1)(N1CCOCC1)N1CCOCC1
inactive: [9] 103 % of control | [10] 89 % of control | [11] 113 % of control

COc1cccc(CC2=C3CCCN(C(=O)c4ccccc4)C3CCC2=O)c1 (stereo not drawn)
inactive: dose: 100.0 mg/kg/injection, schedule: Q01DX009 (ip), vehicle: saline sonified 98 % of control | dose: 200.0 mg/kg/injection, schedule: Q01DX009 (ip), vehicle: saline sonified 96 % of control | dose: 400.0 mg/kg/injection, schedule: Q01DX009 (ip), vehicle: saline sonified 96 % of control

Nc1ccc2cn[nH]c2c1
inactive: dose: 50.0 mg/kg/injection, schedule: Q04DX002 (ip), vehicle: saline with Tween-80 100 % of control | dose: 100.0 mg/kg/injection, schedule: Q01DX009 (ip), vehicle: water 104 % of control | [12] 100 % of control | [13] 96 % of control | dose: 200.0 mg/kg/injection, schedule: Q01DX009 (ip), vehicle: water 111 % of control | [14] 106 % of control | [15] 94 % of control | [16] 100 % of control

CC(=O)OC1CCC2(C)C(=CCC3C2CCC2(C)C(C(C)C(O)C4C(=O)OCC4C(c4ccccc4)(c4ccccc4)c4ccccc4)CCC32)C1 (stereo not drawn)
inactive: dose: 100.0 mg/kg/injection, schedule: Q04DX002 (sc), vehicle: gum acacia 95 % of control | dose: 200.0 mg/kg/injection, schedule: Q04DX002 (sc), vehicle: gum acacia 95 % of control | dose: 400.0 mg/kg/injection, schedule: Q04DX002 (sc), vehicle: gum acacia 92 % of control

CCCCCCCc1cc(O)c2c3c(c(=O)oc2c1)CCC(C)C3 (stereo not drawn)
inactive: [17] 93 % of control | [18] 92 % of control | [19] 93 % of control

C=C1C(=O)OC2C1C(OC(=O)/C(C)=C/COC(C)=O)CC1(CO1)C1C(O)C=C(C)C21 (stereo not drawn)
inactive: dose: 12.5 mg/kg/injection, schedule: Q01DX009 (ip), vehicle: alcohol 103 % of control | dose: 25.0 mg/kg/injection, schedule: Q01DX009 (ip), vehicle: alcohol 105 % of control | dose: 50.0 mg/kg/injection, schedule: Q01DX009 (ip), vehicle: alcohol 105 % of control and 107 % of control

Cc1c(C2CCC(=O)C2)c2ccccc2n1C (stereo not drawn)
inactive: [20] 93 % of control | [21] 89 % of control | [22] 88 % of control

CN(C)c1ccc(C=C(c2ccc(N)cc2)c2ccc(N)cc2)cc1
inactive: [1] 93 % of control | [2] 96 % of control | [3] 96 % of control

CSc1ccc(NC(=O)c2ccc(Cl)cc2Cl)cc1
inactive: [23] 89 % of control | dose: 100.0 mg/kg/injection, schedule: Q01DX009 (ip), vehicle: saline + alcohol 95 % of control and 108 % of control | [12] 96 % of control and 108 % of control | [24] 89 % of control | dose: 200.0 mg/kg/injection, schedule: Q01DX009 (ip), vehicle: saline + alcohol 97 % of control and 106 % of control | [14] 93 % of control and 97 % of control | [25] 90 % of control | [26] 93 % of control and 97 % of control

Nc1ccccc1S(=O)(=O)F
inactive: [17] 100 % of control | [20] 98 % of control | [18] 94 % of control | [21] 98 % of control | [19] 96 % of control | [22] 101 % of control

c1ccc(C[Se]Cc2ccccc2)cc1
inactive: dose: 100.0 mg/kg/injection, schedule: Q04DX003 (ip), vehicle: other 92 % of control

Cc1cc(C(=O)O)c(CN2C(=O)c3ccccc3C2=O)c(=O)n1C
inactive: [23] 105 % of control | [13] 102 % of control | [24] 100 % of control | [15] 100 % of control | [25] 100 % of control | [16] 104 % of control

CCCCSc1nc(SCCCC)nc(SCCCC)n1
inactive: [12] 96 % of control | [14] 111 % of control | [26] 89 % of control

CN1CCc2[nH]c3ccccc3c2C1
inactive: [17] 93 % of control | [18] 93 % of control

CN1c2ccc3ccccc3c2Sc2ccc3ccccc3c21
inactive: dose: 100.0 mg/kg/injection, schedule: Q01DX009 (ip), vehicle: acetone 100 % of control | [6] 94 % of control | dose: 200.0 mg/kg/injection, schedule: Q01DX009 (ip), vehicle: acetone 100 % of control | [7] 95 % of control | dose: 400.0 mg/kg/injection, schedule: Q01DX009 (ip), vehicle: acetone 88 % of control | [8] 97 % of control

CC(=O)Nc1cc(Cl)ccc1C
inactive: dose: 25.0 mg/kg/injection, schedule: Q01DX009 (ip), vehicle: saline with Tween-80 93 % of control | dose: 50.0 mg/kg/injection, schedule: Q01DX009 (ip), vehicle: saline with Tween-80 90 % of control | dose: 50.0 mg/kg/injection, schedule: Q04DX003 (ip), vehicle: saline 95 % of control | [4] 89 % of control | [6] 97 % of control | [7] 100 % of control

O=C(O)C(SSC(C(=O)O)(c1ccccc1)c1ccccc1)(c1ccccc1)c1ccccc1
inactive: dose: 100.0 mg/kg/injection, schedule: Q04DX003 (ip), vehicle: Klucel (hydroxypropylcellulose) (HPC) 106 % of control | dose: 200.0 mg/kg/injection, schedule: Q04DX003 (ip), vehicle: Klucel (hydroxypropylcellulose) (HPC) 102 % of control | dose: 400.0 mg/kg/injection, schedule: Q04DX003 (ip), vehicle: Klucel (hydroxypropylcellulose) (HPC) 88 % of control

CCN(CC)CC(=O)NCC(CCN1CCCCC1)(c1cccc2ccccc12)C(C)C (stereo not drawn)
inactive: dose: 25.0 mg/kg/injection, schedule: Q01DX009 (ip), vehicle: saline 101 % of control | dose: 50.0 mg/kg/injection, schedule: Q01DX009 (ip), vehicle: saline 115 % of control | [5] 112 % of control

O=C1NC2C3CC(c4ccccc43)C12 (stereo not drawn)
inactive: [9] 101 % of control | [10] 108 % of control | [11] 111 % of control

O=C(NCCCl)Sc1ccc(Cl)cc1
inactive: dose: 20.0 mg/kg/injection, schedule: Q04DX003 (ip), vehicle: Klucel (hydroxypropylcellulose) (HPC) 92 % of control | dose: 40.0 mg/kg/injection, schedule: Q04DX003 (ip), vehicle: Klucel (hydroxypropylcellulose) (HPC) 90 % of control | dose: 80.0 mg/kg/injection, schedule: Q04DX003 (ip), vehicle: Klucel (hydroxypropylcellulose) (HPC) 93 % of control
